The source of these data is US12594276B2, “Inhibitors of human immunodeficiency virus replication” (ViiV Healthcare UK (No.5) Limited, priority 2024, dated 2026).

One may read the pEC50 as −log10 of the EC50, conventionally taken in molar units. One may read the CC50 as the concentration that lowers cell viability or growth by half.

Series [1] relates to recombinant NL4-3 virus (nef section replaced with Renilla luciferase gene) in MT-2 cells. Put plainly: HIV cell culture assay (antiviral activity, luciferase readout). It is filed as cell-based. The note with it: Renilla, NL43, MT-2 cells infected for 4-5 days with recombinant NL4-3 Renilla luciferase virus. The method, boiled down: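 The reporter virus was produced by transfecting 293T cells with the NL4-3 nef/Renilla luciferase proviral clone. MT-2 cells were infected for 4–5 days with serial compound dilutions present. Luciferase was read with a live-cell substrate, and EC50 came from the exponential median-effect equation.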

A short description of series [2]: Compound cytotoxicity, XTT-based colorimetric assay. Conditions: human. Format: cell-based. In short, it runs like this: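 Follows the antiviral assay procedure, but with uninfected MT2 cells. On day 4, cell viability is measured by XTT-based colorimetry, giving CC50 values.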
In general terms: Tetrazolium dyes change colour on reduction, which living cells bring about.

Setting [3] is: uninfected MT2 cells, day 4, XTT, read-out: CC50.

pEC50: −log10 of the molar value. Where two headings read alike, the source gives them in different places.

With `COCCCn1nc(NS(C)(=O)=O)c2c(Cl)ccc(-n3c([C@H](Cc4cc(F)cc(F)c4)NC(=O)Cn4nc(C(F)F)c5c4C(F)(F)[C@@H]4C[C@H]54)nc4nc(C5CCC(F)(F)CC5)cc(NCCN(C)C)c4c3=O)c21` (atropisomer, axis not shown; (P)) [Example 522, N-[(1S)-1-[(3P)-3-[4-chloro-3-methanesulfonamido-1-(3-methoxypropyl)-1H-indazol-7-yl]-7-(4,4-difluorocyclohexyl)-5-{[2-(dimethylamino)ethyl]amino}-4-oxo-3H,4H-pyrido[2,3-d]pyrimidin-2-yl]-2-(3,5-difluorophenyl)ethyl]-2-[(2S,4R)-9-(difluoromethyl)-5,5-difluoro-7,8-diazatricyclo[4.3.0.0^2,^4]nona-1(6),8-dien-7-yl]acetamide], the pEC50 in series [1] is 10.85. The CC50 at 4 days in series [2] (setting [3]) was above 20000 pM.
In the case of `Cc1cc(C2CCC(F)(F)CC2)nc2nc([C@H](Cc3cc(F)cc(F)c3)NC(=O)Cn3nc(C4CC4)c4c3C[C@@H]3C[C@H]43)n(-c3ccc(Cl)c4c(NS(C)(=O)=O)nn(CCN5C[C@H]6C[C@@H](C5)O6)c34)c(=O)c12` (atropisomer, axis not shown; (P)) [Example 7, N-[(1S)-1-[(3P)-3-(4-chloro-3-methanesulfonamido-1-{2-[(1R,5S)-6-oxa-3-azabicyclo[3.1.1]heptan-3-yl]ethyl}-1H-indazol-7-yl)-7-(4,4-difluorocyclohexyl)-5-methyl-4-oxo-3H,4H-pyrido[2,3-d]pyrimidin-2-yl]-2-(3,5-difluorophenyl)ethyl]-2-[(2S,4S)-9-cyclopropyl-7,8-diazatricyclo[4.3.0.0^2,^4]nona-1(6),8-dien-7-yl]acetamide], the pEC50 in series [1] was 11.05. In series [2], this compound came in with a CC50 at 4 days above 50000 pM.
In the case of `CS(=O)(=O)Nc1nn(CCN2C[C@H](F)C[C@H](F)C2)c2c(-n3c([C@H](Cc4cc(F)cc(F)c4)NC(=O)Cn4nc(C(F)F)c5c4C(F)(F)[C@@H]4C[C@H]54)nc4nc(C5CCC(F)(F)CC5)cc(NCCN5CCOCC5)c4c3=O)ccc(Cl)c12` (atropisomer, axis not shown; (P)) [Example 491, N-[(1S)-1-[(3P)-3-(4-chloro-1-{2-[(3R,5S)-3,5-difluoropiperidin-1-yl]ethyl}-3-methanesulfonamido-1H-indazol-7-yl)-7-(4,4-difluorocyclohexyl)-5-{[2-(morpholin-4-yl)ethyl]amino}-4-oxo-3H,4H-pyrido[2,3-d]pyrimidin-2-yl]-2-(3,5-difluorophenyl)ethyl]-2-[(2S,4R)-9-(difluoromethyl)-5,5-difluoro-7,8-diazatricyclo[4.3.0.0^2,^4]nona-1(6),8-dien-7-yl]acetamide], the pEC50 in series [1] is 11.05. Also, in series [2] (setting [3]), the CC50 at 4 days is above 20000 pM.
In the case of `Cc1cc(C2CCC(F)(F)CC2)nc2nc([C@H](Cc3cc(F)cc(F)c3)NC(=O)Cn3nc(C(F)F)c4c3C(F)(F)[C@@H]3C[C@H]43)n(-c3ccc(Cl)c4c(NS(C)(=O)=O)nn(CCN5CCOC(C)(C)C5)c34)c(=O)c12` (atropisomer, axis not shown; (P)) [Example 479, N-[(1S)-1-[(3P)-3-{4-chloro-1-[2-(2,2-dimethylmorpholin-4-yl)ethyl]-3-methanesulfonamido-1H-indazol-7-yl}-7-(4,4-difluorocyclohexyl)-5-methyl-4-oxo-3H,4H-pyrido[2,3-d]pyrimidin-2-yl]-2-(3,5-difluorophenyl)ethyl]-2-[(2S,4R)-9-(difluoromethyl)-5,5-difluoro-7,8-diazatricyclo[4.3.0.0^2,^4]nona-1(6),8-dien-7-yl]acetamide], the pEC50 in series [1] is 11.40. The CC50 at 4 days in series [2] (setting [3]) was above 20000 pM.
On to `Cc1cc(C2(C)CCC(F)(F)CC2)nc2nc([C@H](Cc3cc(F)cc(F)c3)NC(=O)Cn3nc(C(F)F)c4c3C(F)(F)[C@@H]3C[C@H]43)n(-c3ccc(Cl)c4c(NS(C)(=O)=O)nn(CCN5C[C@@H](C)O[C@@H](C)C5)c34)c(=O)c12` (atropisomer, axis not shown; (P)) [Example 505, N-[(1S)-1-[(3P)-3-(4-chloro-1-{2-[(2R,6S)-2,6-dimethylmorpholin-4-yl]ethyl}-3-methanesulfonamido-1H-indazol-7-yl)-7-(4,4-difluoro-1-methylcyclohexyl)-5-methyl-4-oxo-3H,4H-pyrido[2,3-d]pyrimidin-2-yl]-2-(3,5-difluorophenyl)ethyl]-2-[(2S,4R)-9-(difluoromethyl)-5,5-difluoro-7,8-diazatricyclo[4.3.0.0^2,^4]nona-1(6),8-dien-7-yl]acetamide], for which, in series [1], the negative logarithm of the EC50 (pEC50) was 10.89. Further, the CC50 at 4 days in series [2] (setting [3]) is above 20000 pM.
The like results for `COCCCn1nc(NS(C)(=O)=O)c2c(Cl)ccc(-n3c([C@H](Cc4cc(F)cc(F)c4)NC(=O)Cn4nc(C(F)F)c5c4C(F)(F)[C@@H]4C[C@H]54)nc4nc(C5CCC(F)(F)CC5)cc(CN5CC(F)(F)C5)c4c3=O)c21` (atropisomer, axis not shown; (P)) [Example 538, N-[(1S)-1-[(3P)-3-[4-chloro-3-methanesulfonamido-1-(3-methoxypropyl)-1H-indazol-7-yl]-5-[(3,3-difluoroazetidin-1-yl)methyl]-7-(4,4-difluorocyclohexyl)-4-oxo-3H,4H-pyrido[2,3-d]pyrimidin-2-yl]-2-(3,5-difluorophenyl)ethyl]-2-[(2S,4R)-9-(difluoromethyl)-5,5-difluoro-7,8-diazatricyclo[4.3.0.0^2,4]nona-1(6),8-dien-7-yl]acetamide] were, in that order, 11.15 and above 20000 pM.
Take `CCc1cc(C2CCC(F)(F)CC2)nc2nc([C@H](Cc3cc(F)cc(F)c3)NC(=O)Cn3nc(C(F)(F)F)c4c3C[C@H]3C[C@@H]43)n(-c3ccc(Cl)c4c(NS(C)(=O)=O)nn(CCCOC)c34)c(=O)c12` (relative stereo) [Example 641, N-[(1S)-1-[(3P)-3-[4-chloro-3-methanesulfonamido-1-(3-methoxypropyl)-1H-indazol-7-yl]-7-(4,4-difluorocyclohexyl)-5-ethyl-4-oxo-3H,4H-pyrido[2,3-d]pyrimidin-2-yl]-2-(3,5-difluorophenyl)ethyl]-2-[(2R*,4R*)-9-(trifluoromethyl)-7,8-diazatricyclo[4.3.0.0^2,^4]nona-1(6),8-dien-7-yl]acetamide]: the pEC50 in series [1] was 10.54. Moreover, in series [2] (setting [3]), the half-maximal cytotoxic concentration (CC50) at 4 days is above 50000 pM.
As for `COCCCn1nc(NS(C)(=O)=O)c2c(Cl)ccc(-n3c([C@H](Cc4cc(F)cc(F)c4)NC(=O)Cn4nc(C(F)F)c5c4C(F)(F)[C@@H]4C[C@H]54)nc4nc(C5CCC(F)(F)CC5)cc(NCCN5CCOCC5(C)C)c4c3=O)c21` (atropisomer, axis not shown; (P)) [Example 477, N-[(1S)-1-[(3P)-3-[4-chloro-3-methanesulfonamido-1-(3-methoxypropyl)-1H-indazol-7-yl]-7-(4,4-difluorocyclohexyl)-5-{[2-(3,3-dimethylmorpholin-4-yl)ethyl]amino}-4-oxo-3H,4H-pyrido[2,3-d]pyrimidin-2-yl]-2-(3,5-difluorophenyl)ethyl]-2-[(2S,4R)-9-(difluoromethyl)-5,5-difluoro-7,8-diazatricyclo[4.3.0.0^2,^4]nona-1(6),8-dien-7-yl]acetamide], the pEC50 in series [1] was 10.89. Besides, the CC50 at 4 days in series [2] (setting [3]) was above 20000 pM.
The like results for `Cc1cc(C2CCC(F)(F)CC2)nc2nc([C@H](Cc3cc(F)cc(F)c3)NC(=O)Cn3nc(C(F)F)c4c3C(F)(F)[C@@H]3C[C@H]43)n(-c3ccc(Cl)c4c(NS(C)(=O)=O)nn(CCN5CC(C)(C)OC(C)(C)C5)c34)c(=O)c12` (atropisomer, axis not shown; (P)) [Example 17, N-[(1S)-1-[(3P)-3-{4-chloro-3-methanesulfonamido-1-[2-(2,2,6,6-tetramethylmorpholin-4-yl)ethyl]-1H-indazol-7-yl}-7-(4,4-difluorocyclohexyl)-5-methyl-4-oxo-3H,4H-pyrido[2,3-d]pyrimidin-2-yl]-2-(3,5-difluorophenyl)ethyl]-2-[(2S,4R)-9-(difluoromethyl)-5,5-difluoro-7,8-diazatricyclo[4.3.0.0^2,^4]nona-1(6),8-dien-7-yl]acetamide] were, in that order, 10.92 and above 50000 pM.
As for `Cc1cc(C2CCC(F)(F)CC2)nc2nc([C@H](Cc3cc(F)cc(F)c3)NC(=O)Cn3nc(C4CC4)c4c3C[C@@H]3C[C@H]43)n(-c3ccc(Cl)c4c(NS(C)(=O)=O)nn(C[C@H](C)N5CC(C)(C)OC(C)(C)C5)c34)c(=O)c12` (relative stereo) [Example 714, N-[(1S)-1-[(3P)-3-{4-chloro-3-methanesulfonamido-1-[(2S)-2-(2,2,6,6-tetramethylmorpholin-4-yl)propyl]-1H-indazol-7-yl}-7-(4,4-difluorocyclohexyl)-5-methyl-4-oxo-3H,4H-pyrido[2,3-d]pyrimidin-2-yl]-2-(3,5-difluorophenyl)ethyl]-2-[(2R*,4R*)-9-cyclopropyl-7,8-diazatricyclo[4.3.0.0^2,4]nona-1(6),8-dien-7-yl]acetamide], in series [1], the pEC50 is 10.62. In addition, the cytotoxic concentration (CC50) at 4 days in series [2] (setting [3]) is above 20000 pM.
Consider `Cc1cc(C2CCC(F)(F)CC2)nc2nc([C@H](Cc3cc(F)cc(F)c3)NC(=O)Cn3nc(C(F)F)c4c3C(F)(F)[C@@H]3C[C@H]43)n(-c3ccc(Cl)c4c(NS(C)(=O)=O)nn(CCN5C[C@@H](F)[C@@H](F)C5)c34)c(=O)c12` (atropisomer, axis not shown; (P)) [Example 267, N-[(1S)-1-[(3P)-3-(4-chloro-1-{2-[(3R,4S)-3,4-difluoropyrrolidin-1-yl]ethyl}-3-methanesulfonamido-1H-indazol-7-yl)-7-(4,4-difluorocyclohexyl)-5-methyl-4-oxo-3H,4H-pyrido[2,3-d]pyrimidin-2-yl]-2-(3,5-difluorophenyl)ethyl]-2-[(2S,4R)-9-(difluoromethyl)-5,5-difluoro-7,8-diazatricyclo[4.3.0.0^2,^4]nona-1(6),8-dien-7-yl]acetamide], for which, in series [1], the pEC50 is 10.82. In series [2] (setting [3]), the CC50 at 4 days is above 50000 pM.
